Four molecules from US20230201236A1, “SPIROCYCLIC NUCLEOSIDE ANALOGUES FOR THE TREATMENT OF HEPATITIS E” (priority 2020, published 2023) can be followed below.

Broadly, the EC50 is the concentration that produces a half-maximal response. As a reminder, the CC50 is the concentration at which the toxic effect on the cells reaches its halfway point.

Holding throughout (type): cell-based
The test system of data set [1] is rat HEV replicon LA-B350/luc. Nature of the data set: Antiviral activity against rat HEV replicon LA-B350/luc in Huh7 cells (Gaussia luciferase). The conditions noted are these: Huh-7, 72 h, luminescence after 3 days, two or three experiments. As for the experimental part:
The antiviral activity of compounds was tested against the rat HEV replicon LA-B350/luc as described in Debing et al (Dis Model Mech 2016; 9:1203-10). To this end, Huh7 cells were electroporated with capped viral RNA produced from plasmid pLA-B350/luc, plated in 96-well plates and treated with each of compounds at selected concentrations. For virus control (VC), compound was omitted. After 3 days, luminescence produced by the secreted Gaussia luciferase was quantified using the Promega Renilla luciferase kit and corrected for background with a cell control (CC, viral RNA and compound omitted). The 50% effective concentration (EC50) is defined as the concentration of compound that causes a 50% reduction in the Luc signal compared to that of average corrected VC. The EC50 was based on two or three experiments and derived by a nonlinear regression fit in GraphPad using a two-parameter logistic model while keeping the slope variable.
A general note: In antiviral work, replicon cells carry a viral genome segment that copies itself.

Data set [2] in a line: Viability evaluation (MTS/PMS) of Huh7 cells transfected with the rat HEV replicon. Conditions: human, highest tested concentration 50 μM. As for the experimental part: (§1) For viability evaluation, medium was removed and cells were subsequently incubated with MTS/PMS solution (3-(4,5-dimethylthiazol-2-yl)-5-(3-carboxymethoxyphenyl)-2-(4-sulfophenyl)-2H-tetrazolium/phenazinemethosulfate), which is metabolized to produce a brown, water-soluble product that is quantified after 1 h at 37° C. by absorbance read-out at 498 nm. Obtained values are expressed as percent inhibition of untreated RNA-transfected control condition. The CC50 represents the concentration at which the metabolic activity of the cells would be reduced to 50% of the metabolic activity of untreated cells (and was based on two experiments and derived by a nonlinear regression fit in GraphPad using a two-parameter logistic model while keeping the slope variable).

Data set [3] has as its system HEV Genotype 3 replicon Kernow-C1 p6/luc. As to the kind of experiment: Antiviral activity against HEV Genotype 3 replicon Kernow-C1 p6/luc in Huh7 cells (Gaussia luciferase). The conditions noted are these: Huh-7, 96 h, luminescence after 4 days, 4PL fit, two experiments, read-out: relative EC50. As for the experimental part:
The antiviral activity of compounds was tested against the HEV Genotype 3 replicon Kernow-C1 p6/luc (Kernow-C1 p6: GenBank accession number JQ679013) as previously described (Debing Y, Emerson S U, Wang Y, Pan Q, Balzarini J, Dallmeier K, Neyts J. 2013. Ribavirin Inhibits In Vitro Hepatitis E Virus Replication through Depletion of Cellular GTP Pools and Is Moderately Synergistic with Alpha Interferon. Antimicrob Agents Chemother, 58:267-273). To this end, Huh7 cells were electroporated with capped in vitro transcribed Kernow-C1 p6/luc-RNA produced from Mlul-digested plasmid DNA (Shukla P, Nguyen H T, Faulk K, Mather K, Torian U, Engle R E, Emerson SU. 2012. Adaptation of a genotype 3 hepatitis E virus to efficient growth in cell culture depends on an inserted human gene segment acquired by recombination. J. Virol. 86:5697-5707), seeded in 96-well plates containing serial dilutions of the test compounds. For virus control (VC) compound was omitted. After 4 days, luminescence produced by the secreted Gaussia luciferase was quantified using the Promega Renilla luciferase kit and corrected for background with a cell control (CC, viral RNA and compound omitted). The relative 50% effective concentration (EC50) is defined as the concentration of compound that causes a 50% reduction in the Luc signal, relative to the signal range. The relative EC50 was based on two experiments and derived by a nonlinear regression fit in GraphPad using a four-parameter logistic (4PL) model.

Data set [4] is described as follows: Viability evaluation (MTS/PMS) of Huh7 cells transfected with Kernow-C1 p6/luc RNA. Conditions: human, highest tested concentration 50 μM, read-out: relative CC50. As for the experimental part:
as §1, with “percentage” for “percent inhibition”, “The relative” for “The”, “and” for “(and”, “two or three” for “two”, “four-parameter” for “two-parameter”, “(4PL) model.” for “model while keeping the slope variable).”

Turning to `CC(C)OC(=O)C(C)NP(=O)(OC[C@@]1(N=[N+]=[N-])O[C@@H](n2ccc(=O)[nH]c2=O)[C@@]2(CCS2)[C@@H]1O)Oc1ccccc1` (stereo in doubt) [Compound 1, isopropyl (2R)-2-[[[(4R,5R,6R,8R)-6-azido-8-(2,4-dioxopyrimidin-1-yl)-5-hydroxy-7-oxa-1-thiaspiro[3.4]octan-6-yl]methoxy-phenoxy-phosphoryl]amino]propanoate], the EC50 in data set [1] was 0.74 µM; in data set [3], more than 50 µM. Further, the 50% cytotoxic concentration (CC50) in data set [2] and in data set [4] was more than 50 µM in each case.

For `COC(=O)C(C)(C)NP(=O)(OC[C@H]1O[C@@H](n2ccc(=O)[nH]c2=O)[C@@]2(CCO2)[C@@H]1O)Oc1ccccc1` (stereo partly drawn) [Compound 4, methyl 2-[[[(4R,5R,7R,8R)-5-(2,4-dioxo-3,4-dihydropyrimidin-1(2H)-yl)-8-hydroxy-1,6-dioxaspiro[3.4]octan-7-yl]methoxy](phenoxy)phosphorylamino]-2-methylpropanoate], the EC50 was determined as 0.36 µM in data set [1] and 0.53 µM in data set [3]. The 50% cytotoxic concentration (CC50) in data set [2] and in data set [4] was more than 50 µM each time.

As to `CC(C)OC(=O)[C@H](C)NP(=O)(OC[C@@]1(F)O[C@@H](n2ccc(=O)[nH]c2=O)[C@@]2(CCS2)[C@@H]1O)Oc1ccccc1` (stereo partly drawn) [Compound 2, (2S)-isopropyl 2-(((((4R,5R,7S,8R)-5-(2,4-dioxo-3,4-dihydropyrimidin-1(2H)-yl)-7-fluoro-8-hydroxy-6-oxa-1-thiaspiro[3.4]octan-7-yl)methoxy)(phenoxy)phosphoryl)-amino)propanoate], a half-maximal effect in data set [1] (EC50) was put at 5.9 µM. Besides, the CC50 in data set [2] and in data set [4] was more than 50 µM in each case.

Consider `CC(C)OC(=O)[C@H](C)NP(=O)(OC[C@H]1O[C@@H](n2ccc(=O)[nH]c2=O)[C@@]2(CCS2)[C@@H]1O)Oc1ccccc1` (stereo partly drawn) [Compound 3, (2S)-isopropyl 2-(((((4R,5R,7R,8R)-5-(2,4-dioxo-3,4-dihydropyrimidin-1(2H)-yl)-8-hydroxy-6-oxa-1-thiaspiro[3.4]octan-7-yl)methoxy)(phenoxy)phosphoryl)amino)propanoate], for which the EC50 in data set [1] was 27 µM; in data set [3], more than 50 µM. Also, the half-maximal cytotoxic concentration (CC50) in data set [2] and in data set [4] was more than 50 µM throughout.
